The NIST ThermoML archive (doi:10.1016/j.tca.2009.03.014)
± gives the expanded uncertainty stated by the source.

Key:
[1] = 101.33 kPa, Liquid; for mass density: 298.15 K, Pycnometric method; for speed of sound: 308.15 K, Linear variable-path acoustic interferometer
[2] = excess molar enthalpy (molar enthalpy of mixing); xn = mol fraction of the nth substance listed; conditions: 308.15 K, 101 kPa, Liquid, Calvet calorimetry
[3] = xn = mol fraction of the nth substance listed; conditions: 308.15 K, 101 kPa, Liquid; for excess molar volume: Direct dilatometry; for speed of sound: Linear variable-path acoustic interferometer

Molecule CCCO [propan-1-ol] has a mass density [1] of 799.28 ± 0.19 kg/m3 and a speed of sound [1] of 1188.2 ± 2.3 m/s.
O=C1CCCN1 [2-pyrrolidinone] showed a mass density [1] of 1107.26 ± 0.29 kg/m3 and a speed of sound [1] of 1603 ± 2.5 m/s.
Molecule CCO [ethanol] has a mass density [1] of 785.08 ± 0.18 kg/m3 and a speed of sound [1] of 1112 ± 2.3 m/s.
O=C1CCCN1 [2-pyrrolidinone] + CCO gave an excess molar enthalpy ([2]; x1 = 0.0647) of 0.269 ± 0.006 kJ/mol, an excess molar enthalpy ([2]; x1 = 0.1158) of 0.428 ± 0.0093 kJ/mol and an excess molar enthalpy ([2]; x1 = 0.2075) of 0.586 ± 0.013 kJ/mol. For the same molecule, the excess molar enthalpy ([2]; x1 = 0.2768) was 0.623 ± 0.013 kJ/mol, the excess molar enthalpy ([2]; x1 = 0.338) was 0.635 ± 0.014 kJ/mol and the excess molar enthalpy ([2]; x1 = 0.38) was 0.619 ± 0.013 kJ/mol. The excess molar enthalpy ([2]; x1 = 0.4337) was 0.584 ± 0.013 kJ/mol, the excess molar enthalpy ([2]; x1 = 0.5337) was 0.494 ± 0.011 kJ/mol and the excess molar enthalpy ([2]; x1 = 0.605) was 0.433 ± 0.0095 kJ/mol. The excess molar enthalpy ([2]; x1 = 0.6856) was 0.349 ± 0.0077 kJ/mol, the excess molar enthalpy ([2]; x1 = 0.7539) was 0.271 ± 0.006 kJ/mol and the excess molar enthalpy ([2]; x1 = 0.7929) was 0.231 ± 0.0052 kJ/mol. For the same molecule, the excess molar enthalpy ([2]; x1 = 0.8436) was 0.19 ± 0.0043 kJ/mol, the excess molar enthalpy ([2]; x1 = 0.8904) was 0.131 ± 0.0031 kJ/mol and the excess molar volume ([3]; x1 = 0.0767) was -9.2e-08 ± 2e-09 m3/mol. For the same molecule, the excess molar volume ([3]; x1 = 0.1393) was -1.72e-07 ± 3e-09 m3/mol, the excess molar volume ([3]; x1 = 0.1763) was -2.15e-07 ± 3e-09 m3/mol and the excess molar volume ([3]; x1 = 0.2676) was -3.07e-07 ± 4e-09 m3/mol. The excess molar volume ([3]; x1 = 0.3493) was -3.68e-07 ± 4e-09 m3/mol, the excess molar volume ([3]; x1 = 0.4016) was -3.94e-07 ± 5e-09 m3/mol and the excess molar volume ([3]; x1 = 0.4865) was -4.16e-07 ± 5e-09 m3/mol. For the same molecule, the excess molar volume ([3]; x1 = 0.5479) was -4.13e-07 ± 5e-09 m3/mol, the excess molar volume ([3]; x1 = 0.6015) was -3.94e-07 ± 5e-09 m3/mol and the excess molar volume ([3]; x1 = 0.6573) was -3.66e-07 ± 4e-09 m3/mol. For the same molecule, the excess molar volume ([3]; x1 = 0.7145) was -3.21e-07 ± 4e-09 m3/mol, the excess molar volume ([3]; x1 = 0.7982) was -2.4e-07 ± 3e-09 m3/mol and the excess molar volume ([3]; x1 = 0.856) was -1.75e-07 ± 3e-09 m3/mol. For the same molecule, the excess molar volume ([3]; x1 = 0.92) was -9.7e-08 ± 2e-09 m3/mol, the speed of sound ([3]; x1 = 0.0784) was 1172.9 ± 2.3 m/s and the speed of sound ([3]; x1 = 0.1607) was 1230.8 ± 2.4 m/s. It also gave a speed of sound ([3]; x1 = 0.1963) of 1252.8 ± 2.4 m/s, a speed of sound ([3]; x1 = 0.2471) of 1282.9 ± 2.4 m/s and a speed of sound ([3]; x1 = 0.338) of 1327.2 ± 2.4 m/s. It also gave a speed of sound ([3]; x1 = 0.3876) of 1349.4 ± 2.4 m/s, a speed of sound ([3]; x1 = 0.4337) of 1366.5 ± 2.4 m/s and a speed of sound ([3]; x1 = 0.4713) of 1381 ± 2.4 m/s. For the same molecule, the speed of sound ([3]; x1 = 0.5347) was 1404.3 ± 2.4 m/s, the speed of sound ([3]; x1 = 0.5985) was 1427.8 ± 2.4 m/s and the speed of sound ([3]; x1 = 0.6412) was 1444.8 ± 2.4 m/s. The speed of sound ([3]; x1 = 0.7539) was 1492.3 ± 2.5 m/s, the speed of sound ([3]; x1 = 0.8064) was 1518.1 ± 2.5 m/s and the speed of sound ([3]; x1 = 0.8887) was 1559.4 ± 2.5 m/s.
Molecule O=C1CCCN1 [2-pyrrolidinone] + CCCCO has an excess molar enthalpy ([2]; x1 = 0.0824) of 0.348 ± 0.0077 kJ/mol, an excess molar enthalpy ([2]; x1 = 0.1933) of 0.647 ± 0.014 kJ/mol and an excess molar enthalpy ([2]; x1 = 0.2472) of 0.727 ± 0.016 kJ/mol. It also gave an excess molar enthalpy ([2]; x1 = 0.3241) of 0.806 ± 0.017 kJ/mol, an excess molar enthalpy ([2]; x1 = 0.3748) of 0.817 ± 0.018 kJ/mol and an excess molar enthalpy ([2]; x1 = 0.4183) of 0.815 ± 0.018 kJ/mol. The excess molar enthalpy ([2]; x1 = 0.4734) was 0.799 ± 0.017 kJ/mol, the excess molar enthalpy ([2]; x1 = 0.5451) was 0.746 ± 0.016 kJ/mol and the excess molar enthalpy ([2]; x1 = 0.5725) was 0.712 ± 0.015 kJ/mol. It also gave an excess molar enthalpy ([2]; x1 = 0.6427) of 0.63 ± 0.014 kJ/mol, an excess molar enthalpy ([2]; x1 = 0.7058) of 0.532 ± 0.011 kJ/mol and an excess molar enthalpy ([2]; x1 = 0.7499) of 0.47 ± 0.01 kJ/mol. For the same molecule, the excess molar enthalpy ([2]; x1 = 0.8571) was 0.275 ± 0.0061 kJ/mol, the excess molar enthalpy ([2]; x1 = 0.9247) was 0.153 ± 0.0035 kJ/mol and the excess molar volume ([3]; x1 = 0.0883) was -6.5e-08 ± 2e-09 m3/mol. The excess molar volume ([3]; x1 = 0.1021) was -7.6e-08 ± 2e-09 m3/mol, the excess molar volume ([3]; x1 = 0.2423) was -1.47e-07 ± 3e-09 m3/mol and the excess molar volume ([3]; x1 = 0.3298) was -1.72e-07 ± 3e-09 m3/mol. For the same molecule, the excess molar volume ([3]; x1 = 0.4003) was -1.87e-07 ± 3e-09 m3/mol, the excess molar volume ([3]; x1 = 0.4536) was -1.9e-07 ± 3e-09 m3/mol and the excess molar volume ([3]; x1 = 0.497) was -1.92e-07 ± 3e-09 m3/mol. For the same molecule, the excess molar volume ([3]; x1 = 0.5269) was -1.88e-07 ± 3e-09 m3/mol, the excess molar volume ([3]; x1 = 0.5855) was -1.83e-07 ± 3e-09 m3/mol and the excess molar volume ([3]; x1 = 0.6229) was -1.76e-07 ± 3e-09 m3/mol. For the same molecule, the excess molar volume ([3]; x1 = 0.7154) was -1.53e-07 ± 3e-09 m3/mol, the excess molar volume ([3]; x1 = 0.7617) was -1.36e-07 ± 3e-09 m3/mol and the excess molar volume ([3]; x1 = 0.8382) was -1.02e-07 ± 2e-09 m3/mol. The excess molar volume ([3]; x1 = 0.8826) was -7.7e-08 ± 2e-09 m3/mol, the speed of sound ([3]; x1 = 0.0632) was 1237.1 ± 2.4 m/s and the speed of sound ([3]; x1 = 0.1176) was 1245.9 ± 2.4 m/s. For the same molecule, the speed of sound ([3]; x1 = 0.186) was 1262.9 ± 2.4 m/s, the speed of sound ([3]; x1 = 0.2306) was 1276.6 ± 2.4 m/s and the speed of sound ([3]; x1 = 0.3394) was 1315.9 ± 2.4 m/s. The speed of sound ([3]; x1 = 0.3954) was 1338.2 ± 2.4 m/s, the speed of sound ([3]; x1 = 0.4442) was 1359 ± 2.4 m/s and the speed of sound ([3]; x1 = 0.4825) was 1374.9 ± 2.4 m/s. It also gave a speed of sound ([3]; x1 = 0.5453) of 1402 ± 2.4 m/s, a speed of sound ([3]; x1 = 0.5702) of 1412.4 ± 2.4 m/s and a speed of sound ([3]; x1 = 0.6427) of 1441.1 ± 2.4 m/s. It also gave a speed of sound ([3]; x1 = 0.7367) of 1478 ± 2.5 m/s, a speed of sound ([3]; x1 = 0.8275) of 1512.6 ± 2.5 m/s and a speed of sound ([3]; x1 = 0.9152) of 1551 ± 2.5 m/s.
